{
  "source": "patent US20100120788A1",
  "about": "“IDENTIFICATION OF POLYNUCLEOTIDES FOR […] OF COMPOUNDS THAT […] WITH AND/OR MODULATE PROTEIN TYROSINE KINASES AND/OR PROTEIN TYROSINE KINASE […] IN PROSTATE CELLS” (Bristol-Myers Squibb Company, priority 2007, published 2010)",
  "test_in_all_cases": "In vitro cell proliferation assay (MTS)",
  "assay_type_in_all_cases": "cell-based, human",
  "key": {"[1]": {"test_system": "LNCaP", "settings": "LNCaP cells", "procedure": "(§1) The IC50 for each cell line was assessed in by MTS assays as described in Example 1 (Methods). […] The IC50 unit is μM.\n(§2) All cell lines were obtained from the American Type Culture Collection (Manassas, Va.), except DUCaP, which was obtained from Dr. Kenneth Pienta at University of Michigan. PWR1E and MDAPCa2b cells were grown in BRFF-HPC1 serum-free medium (AthenaES, Baltimore, Md.), and all other cells were cultured in RPMI 1640 supplemented with 10% fetal bovine serum, 100 IU/ml penicillin, and […] (Invitrogen, Carlsbad, Calif.). DUCaP cells were maintained in the presence of an immortalized mouse fibroblast cell line, which formed a layer beneath DUCaP cells that easily dislodged. Cells were incubated at 37° C. with circulation of 5% CO2.\n(§3) The optimum number of cells to seed in 96-well plates to achieve linearity were determined in pilot experiments. Cells were plated at density of 2000-5000 cells/well into 96-well plates and cultured overnight. Cells were then treated with dasatinib at serially diluted concentrations. Three days later, MTS was added to the medium and quantified on a SPECTRAMAX® photometric plate reader (Molecular Devices, Sunnyvale, Calif.) at 490 nm. The results were plotted against drug concentrations and IC50s were calculated using Prism4 software (GraphPad, San Diego, Calif.). The IC50 was the concentration of dasatinib that would reduce cell proliferation by 50% compared to control. Minimum three independent assays were performed for each cell line. […] In the latter case, the concentration of dasatinib that was able to consistently reduce cell proliferation was used as IC50. […] Dasatinib stock, dissolved in DMSO, was 10 mg/ml."}, "[2]": {"test_system": "RWPE2", "settings": "RWPE2 cells", "procedure": "as §1, §2, §3"}, "[3]": {"test_system": "VCaP", "settings": "VCaP cells", "procedure": "as §1, §2, §3"}, "[4]": {"test_system": "WPMY1", "settings": "WPMY1 cells", "procedure": "as §1, §2, §3"}, "[5]": {"test_system": "RWPE1", "settings": "RWPE1 cells", "procedure": "as §1, §2, §3"}, "[6]": {"test_system": "PWR1E", "settings": "PWR1E cells", "procedure": "as §1, §2, §3"}, "[7]": {"test_system": "W99", "settings": "W99 cells", "procedure": "as §1, §2, §3"}, "[8]": {"test_system": "NB11", "settings": "NB11 cells", "procedure": "as §1, §2, §3"}, "[9]": {"test_system": "22Rvl", "settings": "22Rvl cells", "procedure": "as §1, §2, §3"}, "[10]": {"test_system": "PC3", "settings": "PC3 cells", "procedure": "as §1, §2, §3"}, "[11]": {"test_system": "NB26", "settings": "NB26 cells", "procedure": "as §1, §2, §3"}, "[12]": {"test_system": "MDAPCa2b", "settings": "MDAPCa2b cells", "procedure": "as §1, §2, §3"}, "[13]": {"test_system": "DU145", "settings": "DU145 cells", "procedure": "as §1, §2, §3"}, "[14]": {"test_system": "HPV10", "settings": "HPV10 cells", "procedure": "as §1, §2, §3"}, "[15]": {"test_system": "DUCaP", "settings": "DUCaP cells", "procedure": "as §1, §2, §3"}, "[16]": {"test_system": "HPV7", "settings": "HPV7 cells", "procedure": "as §1, §2, §3"}, "[17]": {"settings": "Homo sapiens, 72 h, MTS, three days, read-out: mean IC50 (μM) to BMS-A"}, "[18]": {"settings": "Homo sapiens, 72 h, MTS, three days, highly resistant: concentration that consistently reduced proliferation used as IC50, read-out: mean IC50 (μM) to BMS-A"}},
  "data": [
    {"smiles": "Cc1nc(Nc2ncc(C(=O)Nc3c(C)cccc3Cl)s2)cc(N2CCN(CCO)CC2)n1", "note": "[BMS-A, N-(2-chloro-6-methylphenyl)-2-[[6-[4-(2-hydroxyethyl)-1-piperazinyl]-2-methyl-4-pyrimidinyl]amino]-5-thiazolecarboxamide]", "values": [
      {"measurement": "IC50", "setting": "[1]; [17]", "result": 0.068, "unit": "µM"},
      {"measurement": "Classification", "setting": "[1]; based on IC50", "result": "Sensitive (The cell lines with an IC50 lower than 0.2 μm were defined as sensitive to the compound)"},
      {"measurement": "IC50", "setting": "[2]; [17]", "result": 0.151, "unit": "µM"},
      {"measurement": "Classification", "setting": "[2]; based on IC50", "result": "Sensitive (The cell lines with an IC50 lower than 0.2 μm were defined as sensitive to the compound)"},
      {"measurement": "IC50", "setting": "[3]; [18]", "result": 2, "unit": "µM"},
      {"measurement": "Classification", "setting": "[3]; based on IC50", "result": "Resistant (those having an IC50 above 0.2 μm were considered to be resistant)"},
      {"measurement": "IC50", "setting": "[4]; Homo sapiens, WPMY-1, 72 h, MTS, three days, highly resistant: concentration that consistently reduced proliferation used as IC50, read-out: mean IC50 (μM) to BMS-A", "result": 2.5, "unit": "µM"},
      {"measurement": "Classification", "setting": "[4]; based on IC50", "result": "Resistant (those having an IC50 above 0.2 μm were considered to be resistant)"},
      {"measurement": "IC50", "setting": "[5]; Homo sapiens, RWPE-1, 72 h, MTS, three days, read-out: mean IC50 (μM) to BMS-A", "result": 0.12, "unit": "µM"},
      {"measurement": "Classification", "setting": "[5]; based on IC50", "result": "Sensitive (The cell lines with an IC50 lower than 0.2 μm were defined as sensitive to the compound)"},
      {"measurement": "IC50", "setting": "[6]; Homo sapiens, PWR-1E, 72 h, MTS, three days, read-out: mean IC50 (μM) to BMS-A", "result": 0.145, "unit": "µM"},
      {"measurement": "Classification", "setting": "[6]; based on IC50", "result": "Sensitive (The cell lines with an IC50 lower than 0.2 μm were defined as sensitive to the compound)"},
      {"measurement": "IC50", "setting": "[7]; [17]", "result": 0.199, "unit": "µM"},
      {"measurement": "Classification", "setting": "[7]; based on IC50", "result": "Sensitive (The cell lines with an IC50 lower than 0.2 μm were defined as sensitive to the compound)"},
      {"measurement": "IC50", "setting": "[8]; [17]", "result": 0.163, "unit": "µM"},
      {"measurement": "Classification", "setting": "[8]; based on IC50", "result": "Sensitive (The cell lines with an IC50 lower than 0.2 μm were defined as sensitive to the compound)"},
      {"measurement": "Classification", "setting": "[9]; based on IC50", "result": "Resistant (those having an IC50 above 0.2 μm were considered to be resistant)"},
      {"measurement": "IC50", "setting": "[9]; [18]", "result": 2, "unit": "µM"},
      {"measurement": "IC50", "setting": "[10]; Homo sapiens, PC-3, 72 h, MTS, three days, read-out: mean IC50 (μM) to BMS-A", "result": 0.051, "unit": "µM"},
      {"measurement": "Classification", "setting": "[10]; based on IC50", "result": "Sensitive (The cell lines with an IC50 lower than 0.2 μm were defined as sensitive to the compound)"},
      {"measurement": "IC50", "setting": "[11]; [17]", "result": 0.139, "unit": "µM"},
      {"measurement": "Classification", "setting": "[11]; based on IC50", "result": "Sensitive (The cell lines with an IC50 lower than 0.2 μm were defined as sensitive to the compound)"},
      {"measurement": "IC50", "setting": "[12]; Homo sapiens, MDA-PCa-2b, 72 h, MTS, three days, highly resistant: concentration that consistently reduced proliferation used as IC50, read-out: mean IC50 (μM) to BMS-A", "result": 2.5, "unit": "µM"},
      {"measurement": "Classification", "setting": "[12]; based on IC50", "result": "Resistant (those having an IC50 above 0.2 μm were considered to be resistant)"},
      {"measurement": "Classification", "setting": "[13]; based on IC50", "result": "Sensitive (The cell lines with an IC50 lower than 0.2 μm were defined as sensitive to the compound)"},
      {"measurement": "IC50", "setting": "[13]; Homo sapiens, DU-145, 72 h, MTS, three days, read-out: mean IC50 (μM) to BMS-A", "result": 0.057, "unit": "µM"},
      {"measurement": "Classification", "setting": "[14]; based on IC50", "result": "Sensitive (The cell lines with an IC50 lower than 0.2 μm were defined as sensitive to the compound)"},
      {"measurement": "IC50", "setting": "[14]; [17]", "result": 0.058, "unit": "µM"},
      {"measurement": "Classification", "setting": "[15]; based on IC50", "result": "Resistant (those having an IC50 above 0.2 μm were considered to be resistant)"},
      {"measurement": "IC50", "setting": "[15]; [18]", "result": 2.5, "unit": "µM"},
      {"measurement": "Classification", "setting": "[16]; based on IC50", "result": "Sensitive (The cell lines with an IC50 lower than 0.2 μm were defined as sensitive to the compound)"},
      {"measurement": "IC50", "setting": "[16]; [17]", "result": 0.127, "unit": "µM"}
    ]}
  ]
}
